Converted amounts (≈) assume the structure as drawn.

For the first assay, the system named is Mycobacterium tuberculosis. The assay is described as follows: Antituberculosis activity against Mycobacterium tuberculosis H37Rv assessed as complete growth inhibition at 20 uM after 5 days. Type of assay: functional. To be noted: 120 h.
The term inhibition denotes the relative decrease from the control value, in per cent. In the case of `Fc1ccc(CNc2nc(N3CCCCC3)nc3[nH]cnc23)cc1`, the inhibition at 20 µM was below 30%.

With `c1ccc2c(CNc3nc(N4CCCCC4)nc4ccccc34)cccc2c1`, the inhibition at 20 µM amounted to 97%.

Take `CN(C)c1nc(NCc2ccc(F)cc2)c2ccccc2n1`: the inhibition at 20 µM was 40%.

For `Nc1ccc(N2CCN(c3nc(NCc4ccc(F)cc4)c4ccccc4n3)CC2)cc1`, the inhibition at 20 µM was determined as 94%.

With `CN(C)C1CCN(c2nc(NCc3ccc(F)cc3)c3ccccc3n2)CC1`, the inhibition at 20 µM was below 30%.

For the compound `c1ccc2c(N3CCCCC3)nc(N3CCCCC3)nc2c1`, the inhibition at 20 µM is below 30%.

`COc1ccc(CNc2nc(N3CCCCC3)nc3ccccc23)cc1`: the inhibition at 20 µM was found to be 97%.

With `Nc1ccc(CNc2nc(N3CCCCC3)nc3ccccc23)cc1`, the inhibition at 20 µM is below 30%.

Turning to `Clc1ccc(CNc2nc(N3CCCCC3)nc3ccccc23)cc1`, the inhibition at 20 µM came out at 99%.

Turning to `Fc1ccc(CNc2nc(N3CCCCC3)nc3ccsc23)cc1`, the inhibition at 20 µM is below 30%.

Turning to `Fc1ccc(CNc2nc(N3CCCCC3)nc3cc(Cl)ccc23)cc1`, the inhibition at 20 µM amounted to 51%.

Turning to `Fc1ccc(CNc2cc(Cc3ccccc3)nc(N3CCCCC3)n2)cc1`, the inhibition at 20 µM amounted to 84%.

`Fc1ccc(CNc2nc(C(F)(F)F)nc3ccccc23)cc1`: the inhibition at 20 µM is below 30%.

Take `CC(C)CNc1nc(N2CCCCC2)nc2ccccc12`: the inhibition at 20 µM was found to be 37%.

For `Fc1cccc(CNc2nc(N3CCCCC3)nc3ccccc23)c1`, the inhibition at 20 µM stood at 98%.

With `Fc1ccc(CNc2nc(N3CCCC3)nc3ccccc23)cc1`, the inhibition at 20 µM is 97%.

Turning to `O=C(O)C1CCN(c2nc(NCc3ccc(F)cc3)c3ccccc3n2)CC1`, the inhibition at 20 µM was below 30%.

`Clc1ccc(CNc2nc(N3CCCCC3)nc3ccccc23)c(Cl)c1`: the inhibition at 20 µM amounted to 98%.

`Cn1cnc2c(NCc3ccc(F)cc3)nc(N3CCCCC3)nc21`: the inhibition at 20 µM was below 30%.

`O=C(O)CNC1CCN(c2nc(NCc3ccc(F)cc3)c3ccccc3n2)CC1`: the inhibition at 20 µM is below 30%.

Take `COc1ccc2c(NCc3ccc(F)cc3)nc(N3CCCCC3)nc2c1`: the inhibition at 20 µM amounted to 74%.

For `Fc1ccc(CNc2nc(N3CCCCC3)nc3ccccc23)cc1F`, the inhibition at 20 µM is 96%.

Regarding `Fc1ccc(CNc2nc(C3CCCCC3)nc3ccccc23)cc1`, the inhibition at 20 µM worked out at 47%.

Turning to `Fc1ccc2c(c1)CCN(c1nc(N3CCCCC3)nc3ccccc13)C2`, the inhibition at 20 µM was 94%.

Take `Fc1ccc(CNc2cc(N3CCCCC3)nc3ccnn23)cc1`: the inhibition at 20 µM was below 30%.

In the case of `Fc1ccc(CNc2nc(-c3ccccc3)nc3ccccc23)cc1`, the inhibition at 20 µM is below 30%.

Turning to `CNc1nc(NCc2ccc(F)cc2)c2ccccc2n1`, the inhibition at 20 µM amounted to 44%.

On to `Fc1ccc(CNc2ncnc3ccccc23)cc1`, for which the inhibition at 20 µM is below 30%.

With `COc1ccc(CNc2nc(N3CCCCC3)nc3ccccc23)cc1Cl`, the inhibition at 20 µM worked out at 98%.

As to `Fc1ccc(CSc2nc(N3CCCCC3)nc3ccccc23)cc1`, the inhibition at 20 µM is below 30%.

In the case of `Cc1ccc2nc(N3CCCCC3)nc(NCc3ccc(F)cc3)c2c1`, the inhibition at 20 µM was found to be 99%.

Consider `OCCN(CCO)c1nc(NCc2ccc(F)cc2)c2ccccc2n1`, for which the inhibition at 20 µM is below 30%.

Turning to `Cc1nc(N2CCCCC2)nc(NCc2ccc(F)cc2)c1C`, the inhibition at 20 µM was below 30%.

Regarding `CNc1nc(N2CCCCC2)nc2ccccc12`, the inhibition at 20 µM was below 30%.

Take `O=[N+]([O-])c1cccc2c(NCc3ccc(F)cc3)nc(N3CCCCC3)nc12`: the inhibition at 20 µM is below 30%.

Take `Fc1ccc(CCc2nc(N3CCCCC3)nc3ccccc23)cc1`: the inhibition at 20 µM is below 30%.

Consider `COc1cccc2c(NCc3ccc(F)cc3)nc(N3CCCCC3)nc12`, for which the inhibition at 20 µM is 83%.

Turning to `Fc1ccc(CNc2nc(N3CCCCC3)nc3ccc(Cl)cc23)cc1`, the inhibition at 20 µM turned out to be 49%.

Regarding `Cc1cccc2nc(N3CCCCC3)nc(NCc3ccc(F)cc3)c12`, the inhibition at 20 µM is 98%.

`O=C(O)C(Nc1cc(N2CCCCC2)nc2ccccc12)c1ccc(F)cc1` (stereo not drawn): the inhibition at 20 µM was below 30%.

Turning to `CC1CC(C)CN(c2nc(NCc3ccc(F)cc3)c3ccccc3n2)C1` (stereo not drawn), the inhibition at 20 µM is below 30%.

Take `CNC1CCN(c2nc(NCc3ccc(F)cc3)c3ccccc3n2)CC1`: the inhibition at 20 µM was found to be 33%.

Take `Fc1ccccc1CNc1nc(N2CCCCC2)nc2ccccc12`: the inhibition at 20 µM was found to be 97%.

Regarding `Fc1ccc(CNc2nc(N3CCCCC3)nc3cccc(Cl)c23)cc1`, the inhibition at 20 µM was below 30%.

Regarding `Cc1cccc(CNc2nc(N3CCCCC3)nc3ccccc23)c1`, the inhibition at 20 µM is 99%.

`Clc1ccc(CNc2nc(N3CCCCC3)nc3ccccc23)cc1Cl`: the inhibition at 20 µM turned out to be 98%.

For the compound `OCC(Nc1cc(N2CCCCC2)nc2ccccc12)c1ccc(F)cc1` (stereo not drawn), the inhibition at 20 µM was determined as 55%.

`Fc1ccc(CNc2nc(N3CCCCC3)nc3ccccc23)c(F)c1`: the inhibition at 20 µM is 97%.

As to `Fc1ccc(CNc2cc(N3CCCCC3)nc3ncnn23)cc1`, the inhibition at 20 µM is below 30%.

On to `COc1ccc2nc(N3CCCCC3)nc(NCc3ccc(F)cc3)c2c1`, for which the inhibition at 20 µM turned out to be 97%.

As for `CC1CCN(c2nc(NCc3ccc(F)cc3)c3ccccc3n2)CC1`, the inhibition at 20 µM amounted to 97%.

Consider `Clc1ccc(Cl)c(CNc2nc(N3CCCCC3)nc3ccccc23)c1`, for which the inhibition at 20 µM was 97%.

For `OC1CCN(c2nc(NCc3ccc(F)cc3)c3ccccc3n2)CC1`, the inhibition at 20 µM is below 30%.

For `FC(F)(F)Oc1ccc(CNc2nc(N3CCCCC3)nc3ccccc23)cc1`, the inhibition at 20 µM is 95%.

For the compound `Fc1ccc(CNc2nc(N3Cc4ccccc4C3)nc3ccccc23)cc1`, the inhibition at 20 µM worked out at 78%.

Take `Fc1ccc(CNc2nc(N3CCCCC3)nc3cccc(F)c23)cc1`: the inhibition at 20 µM is below 30%.

Consider `Ic1cccc(CNc2nc(N3CCCCC3)nc3ccccc23)c1`, for which the inhibition at 20 µM amounted to 98%.

`O=C(O)CC1CCCCN1c1nc(NCc2ccc(F)cc2)c2ccccc2n1` (stereo not drawn): the inhibition at 20 µM was below 30%.

Consider `Cc1ccc(CNc2nc(N3CCCCC3)nc3ccccc23)cc1`, for which the inhibition at 20 µM is 98%.

As for `Cn1ccc2c(NCc3ccc(F)cc3)nc(N3CCCCC3)nc21`, the inhibition at 20 µM was below 30%.

For the compound `Fc1ccc(CNc2nc(N3CCCCC3)nc3[nH]ccc23)cc1`, the inhibition at 20 µM was below 30%.

For the compound `NC1CCN(c2nc(NCc3ccc(F)cc3)c3ccccc3n2)CC1`, the inhibition at 20 µM was below 30%.

Take `c1ccc2c(NCC3CCCCC3)nc(N3CCCCC3)nc2c1`: the inhibition at 20 µM amounted to 99%.

As to `Fc1ccc(CNc2cc(N3CCCCC3)nc3ccccc23)cc1`, the inhibition at 20 µM amounted to 98%.

On to `Fc1ccc(CNc2nc(N3CCCCC3)nc3c(Cl)cccc23)cc1`, for which the inhibition at 20 µM was below 30%.

Regarding `OCC1CCN(c2nc(NCc3ccc(F)cc3)c3ccccc3n2)CC1`, the inhibition at 20 µM is below 30%.

Another assay concerns Mycobacterium tuberculosis. Kind of assay: Antituberculosis activity against Mycobacterium tuberculosis H37Rv assessed as complete growth inhibition after 5 days. As to conditions: 120 h. Type of assay: functional.
By MIC99 is commonly meant the lowest concentration that inhibits either 99% of growth or 99% of the strains tested, depending on the study. Consider `CN(C)c1nc(NCc2ccc(F)cc2)c2ccccc2n1`, for which the MIC99 stood at 34 µM (≈ 10.1 µg/mL).

Consider `Fc1ccc(CNc2nc(N3CCCCC3)nc3ccsc23)cc1`, for which the MIC99 was determined as 292 µM (≈ 100 µg/mL).

Take `Fc1ccc(CNc2cc(Cc3ccccc3)nc(N3CCCCC3)n2)cc1`: the MIC99 came out at 27 µM (≈ 10.2 µg/mL).

As for `CC(C)CNc1nc(N2CCCCC2)nc2ccccc12`, the MIC99 is 25 µM (≈ 7.11 µg/mL).

`Fc1ccc(CNc2nc(N3CCCC3)nc3ccccc23)cc1`: the MIC99 amounted to 31 µM (≈ 9.99 µg/mL).

For the compound `Fc1ccc(CNc2nc(C3CCCCC3)nc3ccccc23)cc1`, the MIC99 worked out at 15 µM (≈ 5.03 µg/mL).

In the case of `Fc1ccc(CNc2nc(-c3ccccc3)nc3ccccc23)cc1`, the MIC99 was 76 µM (≈ 25 µg/mL).

Take `CNc1nc(NCc2ccc(F)cc2)c2ccccc2n1`: the MIC99 is 35 µM (≈ 9.88 µg/mL).

For the compound `Fc1ccc(CNc2ncnc3ccccc23)cc1`, the MIC99 is 99 µM (≈ 25.1 µg/mL).

Regarding `Fc1ccc(CSc2nc(N3CCCCC3)nc3ccccc23)cc1`, the MIC99 worked out at 282 µM (≈ 99.7 µg/mL).

Consider `CNc1nc(N2CCCCC2)nc2ccccc12`, for which the MIC99 was determined as 206 µM (≈ 49.9 µg/mL).

`Fc1ccc(CNc2nc(N3CCCCC3)nc3sccc23)cc1`: the MIC99 is 73 µM (≈ 25 µg/mL).

Source of the values: ChEMBL document CHEMBL3352773, “Synthesis and evaluation of the 2,4-diaminoquinazoline series as anti-tubercular agents” (Bioorg Med Chem, 2014).
